Literature values as cited in article PMC6304311 (Influenza and Other Respiratory Viruses, 2018).
“And” between values parts separate entries of the source, which are not always exact repeats. Identical values can stand only once. “Also recorded” adds a separate entry of the source.

Tests used:
Settings in all cases: cited from earlier work
influenza A(H3N2) = tested on: influenza A(H3N2)
[1] = molecular target: NA from influenza A(H1N1) virus isolates (Influenza A virus, UniProt C0LLZ0)
[2] = tested on: NA from influenza A(H1N1)pdm09 virus isolates
[3] = molecular target: NA from influenza A(H3N2) virus isolates (Influenza A virus, UniProt V5P6L4)
[4] = molecular target: NA from influenza B virus isolates (Influenza B virus, UniProt A0A1S5RAG6)
[5] = tested on: seasonal influenza A(H1N1) viruses
[6] = tested on: Influenza A(H1N1)pdm09 H275Y‐resistant phenotype viruses
[7] = read-out: IC50, resistant phenotype reference virus

SMILES | effect of I215V NA substitution on susceptibility (influenza A(H3N2)) | susceptibility phenotype of reference virus [1] | IC50 [1, 7] [nM] | susceptibility phenotype of reference virus [2] | IC50 [2, 7] [nM] | susceptibility phenotype of reference virus [3] | IC50 [3, 7] [nM] | susceptibility phenotype of reference virus [4] | frequency of resistance globally [5] [%] | phenotype of isolates [5] | frequency of resistance to inhibition (influenza A(H3N2)) | patients with H275Y‐resistant phenotype viruses after treatment [6] [%]
CC(=O)N[C@H]1[C@H]([C@H](O)[C@H](O)CO)OC(C(=O)O)=C[C@@H]1N=C(N)N [zanamivir] | borderline reduction in susceptibility |  |  |  |  |  |  |  |  |  |  | 
CCOC(=O)C1=C[C@@H](OC(CC)CC)[C@H](NC(C)=O)[C@@H](N)C1 [oseltamivir] | borderline reduction in susceptibility | susceptible; also recorded: resistant | 93.2 | susceptible; also recorded: resistant | 70.6 | susceptible; also recorded: resistant | 5.24 | susceptible; also recorded: resistant | 90 | phenotypically resistant | 0.2% and 1.1% | 2
